Measurements: patent US12404265B2, “Substituted pyridine derivatives as SARM1 inhibitors” (Nura Bio, Inc., priority 2020, dated 2025)

What follows are compounds tested against T1, human SARM1(50-724) (Homo sapiens, UniProt Q6SZW1) (assay: SARM1 NADase biochemical assay (HPLC of NAD and NAM)). Details: 40 nM human SARM1(50-724), 0.3 mM NMN, 20 μM NAD, 60 minutes room temperature; dose-response from 100 μM, 1:3 dilution.
T1 construct: 40 nM human SARM1(50-724)
T1 sequence (Q6SZW1 50-724): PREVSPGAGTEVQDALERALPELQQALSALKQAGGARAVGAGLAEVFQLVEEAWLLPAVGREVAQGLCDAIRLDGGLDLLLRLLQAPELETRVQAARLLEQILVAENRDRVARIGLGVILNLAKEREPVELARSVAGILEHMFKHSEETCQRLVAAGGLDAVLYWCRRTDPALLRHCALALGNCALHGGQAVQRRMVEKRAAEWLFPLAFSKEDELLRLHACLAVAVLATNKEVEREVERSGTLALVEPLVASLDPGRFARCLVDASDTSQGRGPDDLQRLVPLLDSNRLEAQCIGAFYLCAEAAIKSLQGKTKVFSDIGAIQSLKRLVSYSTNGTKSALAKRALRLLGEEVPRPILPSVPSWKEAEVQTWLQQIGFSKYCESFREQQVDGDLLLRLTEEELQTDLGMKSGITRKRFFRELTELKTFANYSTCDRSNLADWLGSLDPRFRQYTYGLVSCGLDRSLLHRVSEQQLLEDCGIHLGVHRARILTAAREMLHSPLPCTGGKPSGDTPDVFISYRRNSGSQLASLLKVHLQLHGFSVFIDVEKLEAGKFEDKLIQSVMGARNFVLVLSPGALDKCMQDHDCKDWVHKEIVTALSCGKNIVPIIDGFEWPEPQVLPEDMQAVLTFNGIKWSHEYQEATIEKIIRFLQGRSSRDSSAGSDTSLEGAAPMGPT
Experimental: Each reaction was run at a volume of 20 μL containing 50 μM compound (dissolved in DMSO; final concentration of DMSO is 1% v/v), 40 nM human SARM1(50-724), 0.3 mM NMN, 20 μM NAD, 1 mM TCEP, 25 mM HEPES pH 7.4, 10 mM KCl and 10 mM MgCl2. The reaction was incubated at room temperature for 60 minutes and quenched with 20 μL of 0.4% formic acid. The samples were run on Agilent HPLC 1260 Infinity II with Synergi 2.5 μM Fusion-RP 100 Å (100×3.0 mm) LC column from Phenomenex. Total run time for each sample was 4 minutes. The run was isocratic with 1.5% methanol in 40 mM ammonium acetate pH 6.0. Samples were run at a flow rate of 0.8 mL/min at 55° C. Peak areas of NAD and NAM were determined using OpenLAB CDS (Chem Station edition) software. For dose-response, the compound was diluted serially 1:3 in DMSO and added to the reaction starting at a final compound concentration of 100 μM in 1% DMSO.

Row | Structure (SMILES) | IC50
1 | COc1ccc(CCC(=O)Nc2[nH]nc(-c3ccncc3)c2C)cc1 [Example 27, 3-(4-Methoxyphenyl)-N-(4-methyl-3-(pyridin-4-yl)-1H-pyrazol-5-yl)propanamide] | 1000 to 10000 nM
2 | Cc1c(-c2ccncc2)n[nH]c1NC(=O)CCc1ccc2ccccc2c1 [Example 28, N-(4-Methyl-3-(pyridin-4-yl)-1H-pyrazol-5-yl)-3-(naphthalen-2-yl)propanamide] | 1000 to 10000 nM
3 | Cc1c(-c2ccncc2)n[nH]c1NC(=O)CCc1cccc2ccccc12 [Example 29, N-(4-Methyl-3-(pyridin-4-yl)-1H-pyrazol-5-yl)-3-(naphthalen-1-yl)propanamide] | 1000 to 10000 nM
4 | CCc1ccc(CCC(=O)Nc2[nH]nc(-c3ccncc3)c2C)cc1 [Example 34, 3-(4-Ethylphenyl)-N-(4-methyl-3-(pyridin-4-yl)-1H-pyrazol-5-yl)propanamide] | 1000 to 10000 nM
5 | Cc1c(-c2ccncc2)n[nH]c1NC(=O)CCc1ccc(Cl)cn1 [Example 39, 3-(5-Chloropyridin-2-yl)-N-(4-methyl-3-(pyridin-4-yl)-1H-pyrazol-5-yl)propanamide] | 1000 to 10000 nM
6 | Cc1cc(CCC(=O)Nc2[nH]nc(-c3ccncc3)c2C)ccc1Cl [Example 43, 3-(4-Chloro-3-methylphenyl)-N-(4-methyl-3-(pyridin-4-yl)-1H-pyrazol-5-yl)propanamide] | < 1000 nM
7 | Cc1c(-c2ccncc2)n[nH]c1NC(=O)CCc1ccc(F)c(F)c1 [Example 44, 3-(3,4-Difluorophenyl)-N-(4-methyl-3-(pyridin-4-yl)-1H-pyrazol-5-yl)propanamide] | < 1000 nM
8 | Cc1c(-c2ccncc2)n[nH]c1NC(=O)CCc1ccc(F)cc1F [Example 45, 3-(2,4-Difluorophenyl)-N-(4-methyl-3-(pyridin-4-yl)-1H-pyrazol-5-yl)propanamide] | < 1000 nM
9 | Cc1c(-c2ccncc2)n[nH]c1NC(=O)CCc1ccc(I)cc1 [Example 46, 3-(4-Iodophenyl)-N-(4-methyl-3-(pyridin-4-yl)-1H-pyrazol-5-yl)propanamide] | < 1000 nM
10 | Cc1c(-c2ccncc2)n[nH]c1NC(=O)CCc1cc(Cl)c(Cl)c(Cl)c1 [Example 47, N-(4-Methyl-3-(pyridin-4-yl)-1H-pyrazol-5-yl)-3-(3,4,5-trichlorophenyl)propanamide] | < 1000 nM
11 | Cc1c(-c2ccncc2)n[nH]c1NC(=O)CCc1cc(F)c(Cl)c(F)c1 [Example 48, 3-(4-Chloro-3,5-difluorophenyl)-N-(4-methyl-3-(pyridin-4-yl)-1H-pyrazol-5-yl)propanamide] | < 1000 nM
12 | Cc1c(-c2ccncc2)n[nH]c1NC(=O)CCc1ccc(Cl)c(F)c1F [Example 49, 3-(4-Chloro-2,3-difluorophenyl)-N-(4-methyl-3-(pyridin-4-yl)-1H-pyrazol-5-yl)propanamide] | < 1000 nM
13 | Cc1c(-c2ccncc2)n[nH]c1NC(=O)CCc1cc(F)c(F)c(F)c1 [Example 50, N-(4-Methyl-3-(pyridin-4-yl)-1H-pyrazol-5-yl)-3-(3,4,5-trifluorophenyl)propanamide] | < 1000 nM
14 | Cc1c(-c2ccncc2)n[nH]c1NC(=O)CCc1ccc(F)c(F)c1F [Example 51, N-(4-Methyl-3-(pyridin-4-yl)-1H-pyrazol-5-yl)-3-(2,3,4-trifluorophenyl)propanamide] | < 1000 nM
15 | Cc1c(-c2ccncc2)n[nH]c1NC(=O)CCc1cc(F)c(F)cc1F [Example 52, N-(4-Methyl-3-(pyridin-4-yl)-1H-pyrazol-5-yl)-3-(2,4,5-trifluorophenyl)propanamide] | < 1000 nM
16 | Cc1c(-c2ccncc2)n[nH]c1NC(=O)CCc1ccc(C#N)c(F)c1 [Example 53, 3-(4-Cyano-3-fluorophenyl)-N-(4-methyl-3-(pyridin-4-yl)-1H-pyrazol-5-yl)propanamide] | < 1000 nM
17 | Cc1c(-c2ccncc2)n[nH]c1NC(=O)CCc1ccc(OC(F)(F)F)cc1 [Example 54, N-(4-Methyl-3-(pyridin-4-yl)-1H-pyrazol-5-yl)-3-(4-(trifluoromethoxy)phenyl)propanamide] | < 1000 nM
18 | Cc1c(-c2ccncc2)n[nH]c1NC(=O)CCc1ccc(OC(F)F)cc1 [Example 55, 3-(4-(Difluoromethoxy)phenyl)-N-(4-methyl-3-(pyridin-4-yl)-1H-pyrazol-5-yl)propanamide] | < 1000 nM
19 | Cc1c(-c2ccncc2)n[nH]c1NC(=O)CCc1ccc(CF)cc1 [Example 56, 3-(4-(Fluoromethyl)phenyl)-N-(4-methyl-3-(pyridin-4-yl)-1H-pyrazol-5-yl)propanamide] | < 1000 nM
20 | Cc1c(-c2ccncc2)n[nH]c1NC(=O)CCc1ccc(C(F)F)cc1 [Example 57, 3-(4-(Difluoromethyl)phenyl)-N-(4-methyl-3-(pyridin-4-yl)-1H-pyrazol-5-yl)propanamide] | < 1000 nM
21 | Cc1c(-c2ccncc2)n[nH]c1NC(=O)CCc1c(F)c(F)c(F)c(F)c1F [Example 58, N-(4-Methyl-3-(pyridin-4-yl)-1H-pyrazol-5-yl)-3-(perfluorophenyl)propanamide] | < 1000 nM
22 | Cc1c(-c2ccncc2)n[nH]c1NC(=O)CCc1ccc(F)nc1 [Example 59, 3-(6-Fluoropyridin-3-yl)-N-(4-methyl-3-(pyridin-4-yl)-1H-pyrazol-5-yl)propanamide] | < 1000 nM
23 | Cc1c(-c2ccncc2)n[nH]c1NC(=O)CCc1cnc(F)nc1 [Example 60, 3-(2-Fluoropyrimidin-5-yl)-N-(4-methyl-3-(pyridin-4-yl)-1H-pyrazol-5-yl)propanamide] | < 1000 nM
24 | Cc1c(-c2ccncc2)n[nH]c1NC(=O)CCc1cnc(Cl)nc1 [Example 61, 3-(2-Chloropyrimidin-5-yl)-N-(4-methyl-3-(pyridin-4-yl)-1H-pyrazol-5-yl)propanamide] | < 1000 nM

Results, then the compound that gave them:

Row | IC50 | Structure (SMILES)
25 | < 1000 nM | Cc1c(-c2ccncc2)n[nH]c1NC(=O)CCc1cccc(Cl)c1 [Example 30, 3-(3-Chlorophenyl)-N-(4-methyl-3-(pyridin-4-yl)-1H-pyrazol-5-yl)propanamide]
26 | < 1000 nM | Cc1c(-c2ccncc2)n[nH]c1NC(=O)CCc1ccc(Cl)c(Cl)c1 [Example 31, 3-(3,4-Dichlorophenyl)-N-(4-methyl-3-(pyridin-4-yl)-1H-pyrazol-5-yl)propanamide]
27 | < 1000 nM | Cc1c(-c2ccncc2)n[nH]c1NC(=O)CCc1ccc(C(F)(F)F)cc1 [Example 32, N-(4-Methyl-3-(pyridin-4-yl)-1H-pyrazol-5-yl)-3-(4-(trifluoromethyl)phenyl)propanamide]
28 | < 1000 nM | Cc1c(-c2ccncc2)n[nH]c1NC(=O)CCc1ccc(F)cc1 [Example 33, 3-(4-Fluorophenyl)-N-(4-methyl-3-(pyridin-4-yl)-1H-pyrazol-5-yl)propanamide]
29 | < 1000 nM | Cc1c(-c2ccncc2)n[nH]c1NC(=O)CCc1ccc(Br)cc1 [Example 35, 3-(4-Bromophenyl)-N-(4-methyl-3-(pyridin-4-yl)-1H-pyrazol-5-yl)propanamide]
30 | < 1000 nM | Cc1c(-c2ccncc2)n[nH]c1NC(=O)CCc1ccc(C#N)cc1 [Example 36, 3-(4-Cyanophenyl)-N-(4-methyl-3-(pyridin-4-yl)-1H-pyrazol-5-yl)propanamide]
31 | < 1000 nM | Cc1c(-c2ccncc2)n[nH]c1NC(=O)CCc1ccc([N+](=O)[O-])cc1 [Example 37, N-(4-Methyl-3-(pyridin-4-yl)-1H-pyrazol-5-yl)-3-(4-nitrophenyl)propanamide]
32 | < 1000 nM | Cc1c(-c2ccncc2)n[nH]c1NC(=O)CCc1ccc(Cl)nc1 [Example 38, 3-(6-Chloropyridin-3-yl)-N-(4-methyl-3-(pyridin-4-yl)-1H-pyrazol-5-yl)propanamide]
33 | < 1000 nM | Cc1c(-c2ccncc2)n[nH]c1NC(=O)CCc1cc(F)c(Cl)cc1F [Example 40, 3-(4-Chloro-2,5-difluorophenyl)-N-(4-methyl-3-(pyridin-4-yl)-1H-pyrazol-5-yl)propanamide]
34 | < 1000 nM | Cc1c(-c2ccncc2)n[nH]c1NC(=O)CCc1ccc(Cl)cc1F [Example 41, 3-(4-Chloro-2-fluorophenyl)-N-(4-methyl-3-(pyridin-4-yl)-1H-pyrazol-5-yl)propanamide]
35 | < 1000 nM | Cc1cc(Cl)ccc1CCC(=O)Nc1[nH]nc(-c2ccncc2)c1C [Example 42, 3-(4-Chloro-2-methylphenyl)-N-(4-methyl-3-(pyridin-4-yl)-1H-pyrazol-5-yl)propanamide]
